Columns and labels:
SOD1^G93A mice = test: Post-onset treatment of the SOD1G93A ALS mouse model; assay type: in vivo
Description: Heterozygous SOD1^G93A transgenic mice expressing human SOD1^G93A mutant on a C57BL/6 background (Jackson Laboratory, 004435, RRID:IMSR_JAX:004435) were used in this study.[24]^,[34] Heterozygosity was maintained by mating heterozygous transgenic males with C57BL/6 wild-type females. The animals were provided by the interdisciplinary neurobehavioral core (INBC) at Heidelberg University. Only male wild-type mice and male transgenic mice were used in the experiments. They were housed in groups (maximally three mice/cage) in the INBC, where all behavior experiments were performed. All mice were kept in standard cages (15 cm × 21 cm × 13.5 cm) on a 12:12 h light:dark cycle with ad libitum access to food, water, and nesting material. The treatments were randomly allocated to mice within litter blocks. The experimenter was blinded to the experimental group from the implantation until all analyses were done.
A total of 83 heterozygous SOD1^G93A and 22 wild-type littermates were employed in this study. Eight WT and 12 SOD1^G93A mice were used to determine the EAAT2 protein levels in the spinal cord. Three SOD1^G93A mice were treated with FP802 to explore the concentration of FP802 in the spinal cord. Four SOD1^G93A mice were used to test the tolerability of mice to subcutaneously ALZET osmotic pump (type 2004) implantation with FP802 that allowed a continuous and constant supply of compound to the animals for 4 weeks. Eight wild-type mice were used to explore the disruption of the NMDAR/TRPM4 death signaling complex by FP802. In total, 52 SOD1^G93A mice were treated with FP802 or vehicle via ALZET osmotic pump from week 15 for 30 days (four cohorts). It was not possible to extend the treatment beyond the 30 days application period because the poor health state of many animals was incompatible with the anesthesia required for surgical implantation of a second osmotic pump. The number of animals used for experiments was specified in the figure legends. […] In addition, six wild-type littermates and 12 SOD1^G93A mice were used at week 19 and week 15, respectively, for the analysis of motor neuron survival and serum NfL levels. For the analysis of motor neuron survival, three mice (two from wild-type littermates, one from vehicle-treated SOD1^G93A mice) were excluded from the motor neuron survival because of the loss of sample during preparation.
Bodyweight and neurological scores were examined weekly starting at the onset of symptoms at week 15, which has been defined by previous studies with the same mouse line.[33]^,[34] Neurological scores of the mice were recorded as 0–4 based on the behavior of their hind limbs.[46] The humane endpoint was defined as the mouse’s inability to rectify itself in 30 s and examined daily from week 19 without knowing the treatment group.
Before experiments, mice were habituated to the experimenter and testing room by gentle handling for 1 min in 3 consecutive days. A brief video was taken in the behavior room where the SOD1^G93A mice were placed in an open chamber. On the experimental day, the mice were placed into an open arena (50 cm × 50 cm × 50 cm) for a total of 10 min experiment. The total traveled distance of each mouse was traced and analyzed with SYGNIS software, and also the rearing time was reordered without knowledge of the treatment.
The survival of motor neurons was examined by quantifying the motor neuron marker, choline acetyltransferase (ChAT)-positive neurons, and the inflammation was examined by quantifying the microglial cell marker, ionized calcium binding adaptor molecule 1 (Iba1), in the ventral horn of lumbar spinal cord (L3-L5). All control mice and SOD1 mice were perfused with 20 mL PBS followed by 20 mL of 4% paraformaldehyde in PBS. The lumbar spinal cord was dissected and post-fixed in the same solution for an additional 10 min, followed by 24 h incubation with 30% sucrose solution in PBS. […]

[1] = Serum clinical chemistry of treated SOD1G93A mice; assay type: in vivo, mouse; conditions: 40 mg/kg/day s.c. pump
Procedure: (§1) All hematology and most serum clinical chemistry analyses were carried out by IDEXX Laboratories, Germany. The neurofilament light chain levels in serum were determined by PBL Assay Science (USA) using the Simoa NF-light Advantage Kit (Quanterix Cat #103186).
(§2) Vehicle FP802 n Significance 95% Interval
Table S3. Clinical chemistry serum parameters of SOD1G93A mice treated with vehicle or FP802.
(§3) FP802 delivered with a subcutaneously implanted ALZET osmotic pump at 40 mg/kg/day for 4 weeks starting at
References were from Charles River Laboratories datasheets for C57BL6 mice. Related to Figure 2.

[2] = system: primary mouse cortical neurons; conditions: FP802 10 μM, 30 min pre-incubation, NMDA 20 μM, 2 h
Procedure: Primary mouse cortical neurons were pre-incubated with FP802 (10 μM) or vehicle for 30 min before a 2-h treatment with either bicuculline (Bic, 50 μM) to induce action potential (AP) bursting or NMDA (20 μM) to induce excitotoxic insults. The mRNA levels of Arc, Atf3, Bdnf, c-Fos, Inhibin beta A, and Npas4 were assessed by RT-qPCR. Data represent means ± SD, n = 3; ns: no significant difference, ∗p < 0.05, ∗∗p < 0.01, ∗∗∗p < 0.001, two-way ANOVA followed by Dunnett's multiple comparisons.
Primary mouse cortical neurons were prepared as previously described.[43]^,[44] Briefly, brain cortices from neonatal mice (C57/Bl6, RRID:MGI:7264769) were removed and cut into small pieces in the dissociation medium (in mM: 81.8 Na2SO4, 30 K2SO4, 15.85 MgCl2, 0.25 CaCl2, 1.0 HEPES, 1050.0 kynurenic acid; 0.2% phenol red and 0.36% glucose). The tissues were then digested with papain latex (10 units/mL) in the dissociation medium supplemented with 0.45 mg/mL L-cysteine for two times of 15 min in a 37°C water bath with stirring at 15 rpm. Then the tissue was washed twice with the dissociation medium and incubated with trypsin inhibitor (0.01 g/mL) in dissociation medium for 3 × 5 min. The samples were then triturated into single cell solution and plated at a density of 0.25 × 10^6 cell per well in 24-well plates, which have been pretreated with poly-D-lysine (26.7 mg/μL) and laminin (6.7 mg/μL). […]

[3] = system: primary mouse cortical neurons; test: Glutamate neurotoxicity assay in primary cortical neurons; assay type: cell-based; conditions: Cortical neurone, 20 μM glutamate, compound added 30 min prior, nuclear mCherry-positive neurons, read-out: IC50, protective activity against glutamate-mediated neurotoxicity
Procedure: On DIV10, vehicle (DMSO) or FP802 were added to the primary cortical cultures 30 min prior to glutamate insult. Images were acquired following the glutamate application for 24 h with 2 h intervals, where 9 images were obtained via a 20x objective for each condition at each time point with IncuCyte S3 Live-Cell Analysis System (Sartorius AG, Germany).

[4] = Hematology of treated SOD1G93A mice; assay type: in vivo, mouse; conditions: 40 mg/kg/day s.c. pump
Procedure: as §1, §2
Anisocytosis (%) 0 0 4 n.a. -
Band neutrophils 0 0 4 n.a. -
Basophils (%) 0 0 4 n.a. -
Atypical cells 0 0 4 n.a. -
Table S2. Hematology of SOD1G93A mice treated with vehicle or FP802.
as §3
References were from Charles
River Laboratories datasheets for C57BL6 mice. Related to Figure 2.

[5] = FP802 for 4 weeks from week 15, vs vehicle

What does the source list for `CCN(CCN)Cc1cccc(Cl)c1` [FP802]?
EAAT/GLT-1 expression in lumbar spinal cord (SOD1^G93A mice; 40 mg/kg/day for 4 weeks from week 15, immunoblot): no significant effect; neurological scores (SOD1^G93A mice; FP802 for 4 weeks from week 15 (onset), s.c. osmotic pump, vs vehicle): significantly better; body weight losses (SOD1^G93A mice; [5]): lower; motor performance, total distances traveled in an open field (SOD1^G93A mice; [5]): significantly improved; rearing behavior in open field (SOD1^G93A mice; [5]): frequent rearing behavior; survival median (lifespan) (SOD1^G93A mice; FP802 for 4 weeks starting at week 15, vehicle 151 days): 164 days; neuroinflammatory response, microglia marker Iba1 (SOD1^G93A mice; ventral horn of lumbar spinal cord, week 19): not affected; serum levels of neurofilament light (NfL) chain (SOD1^G93A mice; week 19, treatment from week 15): reduction; soma sizes of lumbar spinal motor neurons (SOD1^G93A mice; week 19, vs control-treated SOD1G93A mice): larger; number of lumbar spinal motor neurons (ChAT-positive) (SOD1^G93A mice; week 19 vs week 15, treatment from week 15): no additional death; adverse effects on the serum clinical chemistry parameters ([1]; 4 weeks): no adverse effects; ALT ([1]; serum, 4 weeks): 32.60 ± 8.30 U/L; AST ([1]; serum, 4 weeks): 195.20 ± 147.29 U/L; Alkaline phosphatase ([1]; serum, 4 weeks): 69.40 ± 6.84 U/L; Calcium ([1]; serum, 4 weeks): 2.35 ± 0.06 mmol/L; Chloride ([1]; serum, 4 weeks): 111.20 ± 3.03 mmol/L; Cholesterol ([1]; serum, 4 weeks): 2.68 ± 0.60 mmol/L; Creatine kinase ([1]; serum, 4 weeks): 1500 ± 1475 U/L; Creatinine ([1]; serum, 4 weeks): 9.00 ± 2.16 µmol/L; GGT ([1]; serum, 4 weeks): Not detectable; Inorganic phosphate ([1]; serum, 4 weeks): 3.26 ± 0.18 mmol/L; LDH ([1]; serum, 4 weeks): 813.3 ± 474.5 U/L; Lipase ([1]; serum, 4 weeks): 32.80 ± 4.15 U/L; Potassium ([1]; serum, 4 weeks): 9.02 ± 3.83 mmol/L; Sodium ([1]; serum, 4 weeks): 149.6 ± 3.9 mmol/L; Total protein ([1]; serum, 4 weeks): 50.00 ± 0.71 g/L; Triglycerides ([1]; serum, 4 weeks): 0.48 ± 0.13 g/L; Urea (BUN) ([1]; serum, 4 weeks): 7.58 ± 1.32 mmol/L; Albumin ([1]; serum, 4 weeks from 15 weeks of age): 28.00 ± 1.00 g/L; transcriptional shut-off induced by eNMDARs [2]: eliminated; NMDA bath application-induced expression of IEGs Atf3, Arc, Bdnf, cFos, Inhibin beta A, Npas4 ([2]; RT-qPCR, levels comparable to bicuculline-induced AP bursting): boosted; IC50 [3]: 8.7 µM; Anisocytosis ([4]; 4 weeks): 0%; Atypical cells ([4]; 4 weeks): 0; Band neutrophils ([4]; 4 weeks): 0; Basophils ([4]; 4 weeks): 0%; Eosinophils ([4]; 4 weeks): 0.25 ± 0.50%; Hematocrit ([4]; 4 weeks): 50.25 ± 1.71%; Hemoglobin ([4]; 4 weeks): 14.13 ± 0.68 g/dL; Leukocytes ([4]; 4 weeks): 3.53 ± 1.32 G/L; Lymphocyte ([4]; 4 weeks): 71.50 ± 5.57%; MCH ([4]; 4 weeks): 14.00 ± 0.12 pg; MCHC ([4]; 4 weeks): 28.50 ± 0.58 g/dL; MCV ([4]; 4 weeks): 49.75 ± 0.50 fL; Monocyte ([4]; 4 weeks): 4.25 ± 1.26%; Reticulocyte ([4]; 4 weeks): 5.10 ± 0.81%; Segmented neutrophils ([4]; 4 weeks): 22.50 ± 6.40%; Thrombocytes ([4]; 4 weeks): 1506.00 ± 174.68 G/L; adverse effects on the hematology ([4]; 4 weeks): no adverse effects; Erythrocyte ([4]; 4 weeks from 15 weeks of age): 10.08 ± 0.38 T/L
